Where two headings read alike, the source gives them in different places.

As a reminder, the CC50 is the concentration giving 50% cytotoxicity. A word on the EC50: it is the concentration needed to bring the measured effect to its halfway point.

Assay [1] deals with HCT116 MTAP-deleted cell lines. As to the kind of experiment: Cell viability assay (CellTiter-Glo, 7 days), HCT116 MTAP-deleted. Type of assay: cell-based. The conditions noted are these: Homo sapiens, HCT-116, HCT116 MTAP-deleted, class symbols, read-out: CC50. In outline: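 Read-out was CellTiter-Glo luminescence after a 7-day incubation (37 °C, 5% CO2) of HCT116 cells, MTAP-deleted or WT, on dose-response compound plates. CC50 values come from each line; where marked *, selectivity is overstated because poor solubility impaired the WT CC50 measurement.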
A general note: In ATP-based viability assays light output follows the ATP content of the culture.

Assay [2] deals with Symmetric Di-methyl Arginine (SDMA) signal (PRMT5 inhibition) in HCT116 MTAP-deleted cells. As to the kind of experiment: Symmetric di-methyl arginine image-based high content screen assay (SDMA assay), HCT116 MTAP-deleted. Type of assay: cell-based. The conditions noted are these: for EC50: Homo sapiens, HCT-116, HCT116 MTAP-deleted, class symbols. How it is done:
Symmetric di-methyl arginine image-based high content screen assay (SDMA assay) was performed in HCT116 WT and HCT116 MTAP-deleted cell lines to measure Symmetric Di-methyl Arginine (SDMA) signal reduction after selective PRMT5 inhibition in the MTAP-deleted cells. Control compounds were analyzed in parallel each time for quality control.
Briefly, the same compound plates were generated as mentioned in the previous section of Cell viability assay on Day −1. On Day 0, 800 HCT WT or HCT116 MTAP-deleted cell were seeded in compound-containing 384 well plates (50 μl per well) in RPMI 1640 media supplemented with 10% heat inactivated fetal bovine serum, Glutamax and penicillin streptomycin using EL460 liquid dispenser 5 μl cassette (BioTek, part no. 7170011). After equilibrating the plate at room temperature, the cells were incubated for 3 days inside the sealed incubator set at 37° C. with 90% humidity and 5% C02.
On Day 3, the cells were fixed by adding 45 μl of 8% neutralized formalin solution to each well using EL460 liquid dispenser 5 μl cassette and the cells were incubated for 30 minutes at room temperature. The formalin solution was washed off with […] phosphate buffered saline (dPBS), the 0.1% Triton X-100 solution in dPBS was used to permeabilize the cells for 15 minutes at room temperature. The triton solution was aspirated, 50 μl of Odyssey Blocking buffer +0.05% Tween20 was added and the plate was incubated at room temperature for 30 minutes.
The blocking solution was removed, a 20 μl of SDMA antibody (Cell Signaling Technology, Cat no. 13222) diluted 1:500 in Odyssey Blocking buffer +0.05% Tween20 was added and the plate was incubated at 4° C. overnight. Next day, the primary SDME antibody solution was washed from each well three times with 0.05% Tween20 in dPBS (PBST).
A 30 μl of the secondary antibody, a Goat anti-Rabbit Alexa Fluor Plus 488 (Invitrogen, Cat no. PIA32731) was diluted 1:500 in Odyssey Blocking buffer +0.05% Tween20 and the plate was incubated for 1.5 hours in dark at room temperature. The secondary antibody solution was removed, 30 μl of 5 mg/ml DAPI solution diluted 1:2000 in dPBS was added and the plate was incubated for 30 minutes in dark at room temperature. The DAPI solution was aspirated and the wells were washed six times with dPBS.
The SDMA signal and DAPI signal per cell were counted using a Cellomics CX7 LZR instrument reading under 488 and 405 nm laser, respectively. The SDMA signal was quantified by mean average intensity per cell from Alexa Fluor Plus 488 after the cell was defined with DAPI. The EC50 values for each compound after 3 days of treatment were calculated using 4 parameter non-linear logistical curve fit.
For the SDMA assay i.e. EC50 shown in Table 3A: A: EC50≤1 nM, B: 1 nM<EC50≤5 nM, C: EC50>5 nM.

The mark [3] stands for this setting: HCT116 WT vs HCT116 MTAP-deleted.
[4] abbreviates: HCT116 WT versus HCT116 MTAP-deleted.

`Cc1ncc2c(N)nc3cnc(C(=O)N4C[C@H](F)C[C@@H]5Oc6cc(C(F)(F)F)ccc6[C@@H]54)cc3n12` (racemic) [Ff-682, Rac-(4-amino-1-methylimidazo[1,5-a]pyrido[3,4-e]pyrazin-8-yl)((3R,4aS,9bS)-3-fluoro-7-(trifluoromethyl)-3,4,4a,9b-tetrahydrobenzofuro[3,2-b]pyridin-1(2H)-yl)methanone]: the CC50 in assay [1] (cell viability assay) was below 100 nM. For the same molecule, the EC50 selectivity in assay [2] (setting [3]) stood at 128. Further, in assay [2], the EC50 lay within 1 to 5 nM.
`Nc1nc2cc(F)c(C(=O)N3C[C@H](F)CC4Oc5cc(OC(F)(F)F)ccc5C43)cc2n2cncc12` (mixture of isomers) [Fg-57, rac-(4-amino-7-fluoroimidazo[1,5-a]quinoxalin-8-yl)((3R,4aS,9bS)-3-fluoro-7-(trifluoromethoxy)-3,4,4a,9b-tetrahydrobenzofuro[3,2-b]pyridin-1(2H)-yl)methanone]: the CC50 in assay [1] (cell viability assay) was below 100 nM. The EC50 selectivity in assay [2] (setting [3]) is reported as 137. The EC50 in assay [2] is at most 1 nM.
In the same order, the values of `Nc1nc2ccc(C(=O)N3C[C@H](F)CC4Oc5cc(OC(F)(F)F)ccc5C43)cc2n2cncc12` (mixture of isomers) [Fg-58, rac-(4-aminoimidazo[1,5-a]quinoxalin-8-yl)((3R,4aS,9bS)-3-fluoro-7-(trifluoromethoxy)-3,4,4a,9b-tetrahydrobenzofuro[3,2-b]pyridin-1(2H)-yl)methanone] are below 100 nM, 345 and 1 to 5 nM.
Consider `C[C@@H]1CN(C(=O)c2cc3c(cc2F)nc(N)c2cncn23)[C@H]2c3ccc(Br)c(F)c3C[C@H]2O1` (single isomer, unassigned) [Ff-163], for which the CC50 in assay [1] (cell viability) is below 100 nM. Moreover, in assay [2] (setting [4]), the EC50 selectivity was determined as 64. The molecule also yielded an EC50 in assay [2] of 1 to 5 nM.
For the molecule `Nc1nc2cc(F)c(C(=O)N3CCC[C@H]4OCc5cc(OC(F)F)ccc5[C@H]43)cc2n2cncc12` (single isomer, unassigned) [Ff-391], the CC50 in assay [1] (cell viability assay) is below 100 nM. This molecule yielded an EC50 selectivity in assay [2] (setting [3]) of 26. The molecule also displayed an EC50 in assay [2] of 1 to 5 nM.
With `Nc1nc2cc(F)c(C(=O)N3CCC[C@@H]4OCc5cc(OC(F)F)ccc5[C@@H]43)cc2n2cncc12` (single isomer, unassigned) [Ff-392], the CC50 in assay [1] (cell viability assay) is below 100 nM. Also, the EC50 selectivity in assay [2] (setting [3]) is 68. Further, the EC50 in assay [2] was at most 1 nM.
Consider `C[C@H]1C[C@@H]2Oc3cc(C(F)(F)F)ccc3[C@@H]2N(C(=O)c2cc3c(cn2)nc(N)c2cncn23)C1` (single isomer, unassigned) [Ff-399], for which, in assay [1] (cell viability assay), the CC50 is below 100 nM. The molecule further returned an EC50 selectivity in assay [2] (setting [3]) of 47. The same molecule returned a concentration for a half-maximal effect (EC50) in assay [2] of at most 1 nM.
As for `Nc1nc2cnc(C(=O)N3CCC[C@@H]4Oc5cc(C(F)(F)F)ccc5[C@@H]43)cc2n2c(F)ncc12` (single isomer, unassigned) [Ff-625], the CC50 in assay [1] (cell viability assay) is 100 to 1000 nM. In addition, the EC50 selectivity in assay [2] (setting [3]) is given as 315. This molecule returned an EC50 in assay [2] above 5 nM.
In the same order, the values of `Nc1nc2cnc(C(=O)N3CCC[C@@H]4Oc5cc(C(F)(F)F)ccc5[C@@H]43)cc2n2cnc(F)c12` (single isomer, unassigned) [Ff-626] are below 100 nM, 143 and 1 to 5 nM.
For the molecule `Nc1nc2ccc(C(=O)N3C[C@H](F)C[C@@H]4Oc5cc(C(F)(F)F)ccc5[C@@H]43)cc2n2cncc12` (single isomer, unassigned) [Ff-681], the CC50 in assay [1] (cell viability assay) is below 100 nM. Moreover, the EC50 selectivity in assay [2] (setting [3]) worked out at 313. The molecule also showed an EC50 in assay [2] of at most 1 nM.
Regarding `Nc1nc2cnc(C(=O)N3CCC[C@@H]4Cc5cc(C(F)(F)F)ccc5[C@@H]43)cc2n2cncc12` (single isomer, unassigned) [Ff-687], the CC50 in assay [1] (cell viability assay) is below 100 nM. For the same molecule, the EC50 selectivity in assay [2] (setting [3]) came to 325. Besides, the EC50 in assay [2] was at most 1 nM.
Consider `C[C@H]1C[C@@H]2Oc3cc(C(F)(F)F)ccc3[C@@H]2N(C(=O)c2ccc3nc(N)c4cncn4c3c2)C1` (single isomer, unassigned) [Ff-689], for which, in assay [1] (cell viability assay), the CC50 is below 100 nM. The same molecule had an EC50 selectivity in assay [2] (setting [3]) of 59. For the same molecule, the EC50 in assay [2] is at most 1 nM.
With `CC(=O)N(C)N(Cc1ccc(C(F)(F)F)cn1)C(=O)c1ccc2nc(N)n3cncc3c2c1` [Fa-1, N′-acetyl-5-amino-N′-methyl-N-((5-(trifluoromethyl)pyridin-2-yl)methyl)imidazo[1,5-c]quinazoline-9-carbohydrazide], in assay [1] (cell viability), the CC50 was above 1000 nM. The same molecule registered an EC50 selectivity in assay [2] (setting [4]) of 152. Besides, the EC50 in assay [2] is above 5 nM.
For the molecule `Cc1ncc2c(N)nc3ccc(C(=O)N(Cc4ccc(C(F)(F)F)cn4)N(C)c4ncccn4)cc3n12` [Fa-2, 4-amino-N′,1-dimethyl-N′-pyrimidin-2-yl-N-[[5-(trifluoromethyl)-2-pyridyl]methyl]imidazo[1,5-a]quinoxaline-8-carbohydrazide], the CC50 in assay [1] (cell viability) is below 100 nM. The EC50 selectivity in assay [2] (setting [4]) was found to be 17. Moreover, the EC50 in assay [2] was at most 1 nM.
In the same order, the values of `Nc1nc2ccc(C(=O)N(Cc3ccc(C(F)(F)F)cn3)N3CCOCC3)cc2c2cncn12` [Fa-3, 5-amino-N-morpholino-N-((5-(trifluoromethyl)pyridin-2-yl)methyl)imidazo[1,5-c]quinazoline-9-carboxamide] are above 1000 nM, 22 and above 5 nM.
The like results for `Cc1ncn2c1c(N)nc1ccc(C(=O)N(Cc3ccc(C(F)(F)F)cc3F)N(C)C(=O)C3CC3)cc12` [Fa-4, 4-amino-N′-(cyclopropanecarbonyl)-N-(2-fluoro-4-(trifluoromethyl)benzyl)-N′,3-dimethylimidazo[1,5-a]quinoxaline-8-carbohydrazide] were, in that order, below 100 nM, 74 and 1 to 5 nM.
In the same order, the values of `CC(=O)N(C)N(Cc1ccc(-c2cnn(C(F)(F)F)c2)cc1F)C(=O)c1ccc2nc(N)c3c(C)ncn3c2c1` [Fa-5, N′-acetyl-4-amino-N-(2-fluoro-4-(1-(trifluoromethyl)-1H-pyrazol-4-yl)benzyl)-N′,3-dimethylimidazo[1,5-a]quinoxaline-8-carbohydrazide] are below 100 nM, 101 and 1 to 5 nM.
As for `CC(=O)N(C)N(Cc1ccc(Cl)cc1C#N)C(=O)c1ccc2nc(N)c3c(C)ncn3c2c1` [Fa-6, N′-acetyl-4-amino-N-(4-chloro-2-cyanobenzyl)-N′,3-dimethylimidazo[1,5-a]quinoxaline-8-carbohydrazide], the CC50 in assay [1] (cell viability) is below 100 nM. For the same molecule, the EC50 selectivity in assay [2] (setting [4]) is 129. The molecule also showed an EC50 in assay [2] of 1 to 5 nM.
Turning to `CC(=O)N(C)N(Cc1ccc(C(F)(F)F)cc1F)C(=O)c1ccc2nc(N)c3c(C)nc(C)n3c2c1` [Fa-7, N′-acetyl-4-amino-N-(2-fluoro-4-(trifluoromethyl)benzyl)-N′,1,3-trimethylimidazo[1,5-a]quinoxaline-8-carbohydrazide], in assay [1] (cell viability), the CC50 lay within 100 to 1000 nM. Further, the EC50 selectivity in assay [2] (setting [4]) is 159. The EC50 in assay [2] was above 5 nM.
For `Nc1nc2ccc(C(=O)N(Cc3ccc(C(F)(F)F)cn3)N3CCOCC3)cc2n2cncc12` [Fb-2, 4-amino-N-morpholino-N-((5-(trifluoromethyl)pyridin-2-yl)methyl)imidazo[1,5-a]quinoxaline-8-carboxamide], the CC50 in assay [1] (cell viability) was below 100 nM. The same molecule returned an EC50 selectivity in assay [2] (setting [4]) of 48. Besides, in assay [2], the EC50 was 1 to 5 nM.
In the same order, the values of `CN(C(=O)C1CC1)N(Cc1ccc(C(F)(F)F)cc1F)C(=O)c1cc2c(cc1F)nc(N)c1cncn12` [Fb-3, 4-amino-N′-(cyclopropanecarbonyl)-7-fluoro-N-(2-fluoro-4-(trifluoromethyl)benzyl)-N′-methylimidazo[1,5-a]quinoxaline-8-carbohydrazide] are below 100 nM, 32 and at most 1 nM.

(Values after patent US12448388B2, “PRMT5 inhibitors and uses thereof” (Gilead Sciences, Inc., priority 2023, dated 2025).)
